Test results from patent US9850283B2, “Macrocyclic inhibitors of the PD-1/PD-L1 and CD80(B7-1)/PD-L1 protein/protein interactions” (BRISTOL-MYERS SQUIBB COMPANY, priority 2013, dated 2017).
Starred links: 1 amine or outer side, 2 acyl side, 3 side chain; linkers in the order of their positions; H or OH if unused. Positions of bridges follow the written chain, without caps; N, C: chain ends. Non-standard residues stand in square brackets, D forms with d. Residues, ends and D or L forms follow the SMILES beside them. X18 = CS(=O)(=O)Nc1ccc(C[C@H](N[*:1])C(=O)[*:2])cc1; Phe(3,4-(OMe)2) = COc1ccc(C[C@H](N)C(=O)O)cc1OC; Phe(3,4-Cl2) = N[C@@H](Cc1ccc(Cl)c(Cl)c1)C(=O)O; Phe(3-CF3) = N[C@@H](Cc1cccc(C(F)(F)F)c1)C(=O)O; Phe(3,4-F2) = N[C@@H](Cc1ccc(F)c(F)c1)C(=O)O; Phe(3-Cl) = N[C@@H](Cc1cccc(Cl)c1)C(=O)O; Phe(2-Cl) = N[C@@H](Cc1ccccc1Cl)C(=O)O; Pro(4,4-F2) = O=C(O)[C@@H]1CC(F)(F)CN1; Phe(2-Me) = Cc1ccccc1C[C@H](N)C(=O)O; Bta = N[C@@H](Cc1csc2ccccc12)C(=O)O; Hyp = O=C(O)[C@@H]1C[C@@H](O)CN1; NMeNle = CCCC[C@H](NC)C(=O)O; NMeA = CN[C@@H](C)C(=O)O; Dap = NC[C@H](N)C(=O)O; Sar = CNCC(=O)O

Legend:
[1] = target: T1, Human PD-L1/PD-1 (Homo sapiens, UniProt Q9NZQ7); test: HTRF PD-1-Ig/PD-L1-His binding assay (human PD-L1); conditions: cluster symbol; read-out: HTRF IC50 cluster
T1 construct: made in house; host or cells: HEK293T
T1 sequence (Q9NZQ7 with tags, fused parts or gaps): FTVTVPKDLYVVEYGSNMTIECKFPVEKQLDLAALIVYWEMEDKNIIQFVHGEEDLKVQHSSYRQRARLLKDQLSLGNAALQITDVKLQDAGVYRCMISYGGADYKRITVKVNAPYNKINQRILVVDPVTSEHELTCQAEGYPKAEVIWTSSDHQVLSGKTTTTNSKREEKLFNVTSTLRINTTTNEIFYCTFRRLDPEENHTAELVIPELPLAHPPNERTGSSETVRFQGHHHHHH
Method in brief: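 Interaction of Fc-tagged soluble PD-1 with His-tagged soluble PD-L1 is monitored by time-resolved FRET. Donor is europium cryptate anti-Ig (1 nM final) and acceptor is APC anti-His (20 nM final). Assay buffer is dPBS with 0.1% BSA and 0.05% Tween-20.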

[2] = target: T2, LK35.2-hPD-L1 cells / PE-labeled PD-1-Ig (Homo sapiens, UniProt Q9NZQ7); test: LK35.2-hPD-L1 cell binding high-content screening assay; assay type: cell-based; conditions: cluster symbol; cell line of CBA not given (LK35.2-hPD-L1 or 293T-hPD-L1); read-out: CBA IC50 cluster
T2 construct: expressed in transfected cells; host or cells: LK35.2 mouse B cell line
T2 sequence (Q9NZQ7 19-290): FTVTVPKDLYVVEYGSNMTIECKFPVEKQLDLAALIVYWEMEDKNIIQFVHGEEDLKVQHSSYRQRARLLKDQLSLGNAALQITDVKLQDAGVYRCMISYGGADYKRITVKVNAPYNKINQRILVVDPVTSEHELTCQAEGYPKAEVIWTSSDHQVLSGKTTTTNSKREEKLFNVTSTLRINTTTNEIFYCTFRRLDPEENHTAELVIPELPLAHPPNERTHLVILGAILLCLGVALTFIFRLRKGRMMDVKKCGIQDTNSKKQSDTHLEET
Method in brief: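 Binding of PE-conjugated human PD-1-Ig (1 nM final) to human PD-L1 stably expressed on a mouse B-cell line (LK35.2) was measured by high-content imaging after washes. Compound and labeled PD-1-Ig were co-incubated 1 h at 37 °C with cells in RPMI/10% FCS.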

| Structure (SMILES) | IC50 [1] [nM] | IC50 [2] [nM] |
| --- | --- | --- |
| CCCC[C@H]1C(=O)N(C)[C@@H](CCCC)C(=O)N[C@@H](CCCNC(=N)N)C(=O)N[C@H](C(=O)NCC(N)=O)CSCC(=O)N[C@@H](Cc2ccccc2Cl)C(=O)N(C)[C@@H](C)C(=O)N[C@@H](CC(N)=O)C(=O)N2CCC[C@H]2C(=O)N[C@@H](Cc2cnc[nH]2)C(=O)N[C@@H](CC(C)C)C(=O)N(C)CC(=O)N[C@@H](Cc2c[nH]c3ccccc23)C(=O)N[C@@H](CO)C(=O)N[C@@H](Cc2c[nH]c3ccccc23)C(=O)N1C [Example 1101] ({CH2CO}-[Phe(2-Cl)][NMeA]NPHL[Sar]WSW[NMeNle][NMeNle]RCG-NH2; thioether N-14) | > 30.5 | > 74.3 |
| CCCC[C@H]1C(=O)N(C)[C@@H](CCCC)C(=O)N[C@@H](CCCNC(=N)N)C(=O)N[C@H](C(=O)NCC(N)=O)CSCC(=O)N[C@@H](Cc2cccc(Cl)c2)C(=O)N(C)[C@@H](C)C(=O)N[C@@H](CC(N)=O)C(=O)N2CCC[C@H]2C(=O)N[C@@H](Cc2cnc[nH]2)C(=O)N[C@@H](CC(C)C)C(=O)N(C)CC(=O)N[C@@H](Cc2c[nH]c3ccccc23)C(=O)N[C@@H](CO)C(=O)N[C@@H](Cc2c[nH]c3ccccc23)C(=O)N1C [Example 1102] ({CH2CO}-[Phe(3-Cl)][NMeA]NPHL[Sar]WSW[NMeNle][NMeNle]RCG-NH2; thioether N-14) | > 30.5 | > 74.3 |
| CCCC[C@H]1C(=O)N(C)[C@@H](CCCC)C(=O)N[C@@H](CCCNC(=N)N)C(=O)N[C@H](C(=O)NCC(N)=O)CSCC(=O)N[C@@H](Cc2cccc(C(F)(F)F)c2)C(=O)N(C)[C@@H](C)C(=O)N[C@@H](CC(N)=O)C(=O)N2CCC[C@H]2C(=O)N[C@@H](Cc2cnc[nH]2)C(=O)N[C@@H](CC(C)C)C(=O)N(C)CC(=O)N[C@@H](Cc2c[nH]c3ccccc23)C(=O)N[C@@H](CO)C(=O)N[C@@H](Cc2c[nH]c3ccccc23)C(=O)N1C [Example 1107] ({CH2CO}-[Phe(3-CF3)][NMeA]NPHL[Sar]WSW[NMeNle][NMeNle]RCG-NH2; thioether N-14) | > 30.5 | > 74.3 |
| CC(C)C[C@@H]1NC(=O)[C@H](Cc2cnc[nH]2)NC(=O)[C@@H]2CCCN2C(=O)[C@H](CC(N)=O)NC(=O)[C@H](C)N(C)C(=O)[C@H](Cc2ccccc2)NC(=O)CSC[C@@H](C(=O)NCC(N)=O)NC(=O)[C@H](CCCNC(=N)N)NC(=O)[C@H](C)N(C)C(=O)[C@H](CCCc2ccccc2)NC(=O)[C@H](Cc2c[nH]c3ccccc23)NC(=O)[C@H](CO)NC(=O)[C@H](Cc2c[nH]c3ccccc23)NC(=O)CN(C)C1=O [Example 1108] (HELM PEPTIDE1{[O=C(C[*:3])[*:2]].F.[meA].N.P.H.L.[Sar].W.S.W.[O=C([C@H](CCCc1ccccc1)N[*:1])[*:2]].[meA].R.C.G.[am]}$PEPTIDE1,PEPTIDE1,1:R3-15:R3$$$V2.0) | > 30.5 | > 74.3 |
| CCCC[C@H]1C(=O)N(C)[C@@H](CCCC)C(=O)N[C@@H](CCCNC(=N)N)C(=O)N[C@H](C(=O)NCC(N)=O)CSCC(=O)N[C@@H](Cc2ccccc2)C(=O)N(C)[C@@H](C)C(=O)N[C@@H](CC(N)=O)C(=O)N2CCC[C@H]2C(=O)N[C@@H](Cc2cnc[nH]2)C(=O)N[C@@H](CC(C)C)C(=O)NC(C)(C)C(=O)N[C@@H](Cc2c[nH]c3ccccc23)C(=O)N[C@@H](CO)C(=O)N[C@@H](Cc2c[nH]c3ccccc23)C(=O)N1C [Example 1110] | > 30.5 | > 74.3 |
| CCCC[C@H]1C(=O)N(C)[C@@H](CCCC)C(=O)N[C@@H](CCCNC(=N)N)C(=O)N[C@H](C(=O)NCC(N)=O)CSCC(=O)N[C@@H](Cc2ccccc2)C(=O)N(C)[C@@H](C)C(=O)N[C@@H](CC(N)=O)C(=O)N2CC(F)(F)C[C@H]2C(=O)N[C@@H](Cc2cnc[nH]2)C(=O)N[C@@H](CC(C)C)C(=O)N(C)CC(=O)N[C@@H](Cc2c[nH]c3ccccc23)C(=O)N[C@@H](CO)C(=O)N[C@@H](Cc2c[nH]c3ccccc23)C(=O)N1C [Example 1112] ({CH2CO}-F[NMeA]N[Pro(4,4-F2)]HL[Sar]WSW[NMeNle][NMeNle]RCG-NH2; thioether N-14) | > 30.5 | > 74.3 |

Results, then the molecule that gave them:

| IC50 [1] [nM] | IC50 [2] [nM] | Structure (SMILES) |
| --- | --- | --- |
| > 30.5 | > 74.3 | CCCC[C@H]1C(=O)N(C)[C@@H](CCCC)C(=O)N[C@@H](CCCNC(=N)N)C(=O)N[C@H](C(=O)NCC(N)=O)CSCC(=O)N[C@@H](Cc2ccc(NS(C)(=O)=O)cc2)C(=O)N(C)[C@@H](C)C(=O)N[C@@H](CC(N)=O)C(=O)N2CCC[C@H]2C(=O)N[C@@H](Cc2cnc[nH]2)C(=O)N[C@@H](CC(C)C)C(=O)N(C)CC(=O)N[C@@H](Cc2c[nH]c3ccccc23)C(=O)N[C@@H](CO)C(=O)N[C@@H](Cc2c[nH]c3ccccc23)C(=O)N1C [Example 1100] ({CH2CO}-[X18][NMeA]NPHL[Sar]WSW[NMeNle][NMeNle]RCG-NH2; thioether N-14) |
| 6.76 to 30.3 | 4.78 to 72.9 | CCCC[C@H]1C(=O)N(C)[C@@H](CCCC)C(=O)N[C@@H](CCCNC(=N)N)C(=O)N[C@H](C(=O)NCC(N)=O)CSCC(=O)N[C@@H](Cc2ccc(Cl)c(Cl)c2)C(=O)N(C)[C@@H](C)C(=O)N[C@@H](CC(N)=O)C(=O)N2CCC[C@H]2C(=O)N[C@@H](Cc2cnc[nH]2)C(=O)N[C@@H](CC(C)C)C(=O)N(C)CC(=O)N[C@@H](Cc2c[nH]c3ccccc23)C(=O)N[C@@H](CO)C(=O)N[C@@H](Cc2c[nH]c3ccccc23)C(=O)N1C [Example 1103] ({CH2CO}-[Phe(3,4-Cl2)][NMeA]NPHL[Sar]WSW[NMeNle][NMeNle]RCG-NH2; thioether N-14) |
| 6.76 to 30.3 | 4.78 to 72.9 | CCCC[C@H]1C(=O)N(C)[C@@H](CCCC)C(=O)N[C@@H](CCCNC(=N)N)C(=O)N[C@H](C(=O)NCC(N)=O)CSCC(=O)N[C@@H](Cc2ccc(F)c(F)c2)C(=O)N(C)[C@@H](C)C(=O)N[C@@H](CC(N)=O)C(=O)N2CCC[C@H]2C(=O)N[C@@H](Cc2cnc[nH]2)C(=O)N[C@@H](CC(C)C)C(=O)N(C)CC(=O)N[C@@H](Cc2c[nH]c3ccccc23)C(=O)N[C@@H](CO)C(=O)N[C@@H](Cc2c[nH]c3ccccc23)C(=O)N1C [Example 1104] ({CH2CO}-[Phe(3,4-F2)][NMeA]NPHL[Sar]WSW[NMeNle][NMeNle]RCG-NH2; thioether N-14) |
| 6.76 to 30.3 | 4.78 to 72.9 | CCCC[C@H]1C(=O)N(C)[C@@H](CCCC)C(=O)N[C@@H](CCCNC(=N)N)C(=O)N[C@H](C(=O)NCC(N)=O)CSCC(=O)N[C@@H](Cc2ccc(OC)c(OC)c2)C(=O)N(C)[C@@H](C)C(=O)N[C@@H](CC(N)=O)C(=O)N2CCC[C@H]2C(=O)N[C@@H](Cc2cnc[nH]2)C(=O)N[C@@H](CC(C)C)C(=O)N(C)CC(=O)N[C@@H](Cc2c[nH]c3ccccc23)C(=O)N[C@@H](CO)C(=O)N[C@@H](Cc2c[nH]c3ccccc23)C(=O)N1C [Example 1105] ({CH2CO}-[Phe(3,4-(OMe)2)][NMeA]NPHL[Sar]WSW[NMeNle][NMeNle]RCG-NH2; thioether N-14) |
| 6.76 to 30.3 | 4.78 to 72.9 | CCCC[C@H]1C(=O)N(C)[C@@H](CCCC)C(=O)N[C@@H](CCCNC(=N)N)C(=O)N[C@H](C(=O)NCC(N)=O)CSCC(=O)N[C@@H](Cc2ccccc2C)C(=O)N(C)[C@@H](C)C(=O)N[C@@H](CC(N)=O)C(=O)N2CCC[C@H]2C(=O)N[C@@H](Cc2cnc[nH]2)C(=O)N[C@@H](CC(C)C)C(=O)N(C)CC(=O)N[C@@H](Cc2c[nH]c3ccccc23)C(=O)N[C@@H](CO)C(=O)N[C@@H](Cc2c[nH]c3ccccc23)C(=O)N1C [Example 1106] ({CH2CO}-[Phe(2-Me)][NMeA]NPHL[Sar]WSW[NMeNle][NMeNle]RCG-NH2; thioether N-14) |
| 0.385 to 6.74 | 0.158 to 4.71 | CCCC[C@H]1C(=O)N(C)[C@@H](CCCC)C(=O)N[C@@H](CCCNC(=N)N)C(=O)N[C@H](C(=O)NCC(N)=O)CSCC(=O)N[C@@H](Cc2ccc(O)cc2)C(=O)N(C)[C@@H](C)C(=O)N[C@@H](CC(N)=O)C(=O)N2CCC[C@H]2C(=O)N[C@@H](CN)C(=O)N[C@@H](CC(C)C)C(=O)N2CCC[C@H]2C(=O)N[C@@H](Cc2c[nH]c3ccccc23)C(=O)N[C@@H](CO)C(=O)N[C@@H](Cc2c[nH]c3ccccc23)C(=O)N1C [Example 1113] ({CH2CO}-Y[NMeA]NP[Dap]LPWSW[NMeNle][NMeNle]RCG-NH2; thioether N-14) |
| 6.76 to 30.3 | 0.158 to 4.71 | CCCC[C@H]1C(=O)N(C)[C@@H](CCCC)C(=O)N[C@@H](CCCNC(=N)N)C(=O)N[C@H](C(=O)NCC(N)=O)CSCC(=O)N[C@@H](Cc2ccc(O)cc2)C(=O)N(C)[C@@H](C)C(=O)N[C@@H](CC(N)=O)C(=O)N2CCC[C@H]2C(=O)N[C@@H](CN)C(=O)N[C@@H](CC(C)C)C(=O)N2C[C@H](O)C[C@H]2C(=O)N[C@@H](Cc2c[nH]c3ccccc23)C(=O)N[C@@H](CO)C(=O)N[C@@H](Cc2c[nH]c3ccccc23)C(=O)N1C [Example 1114] ({CH2CO}-Y[NMeA]NP[Dap]L[Hyp]WSW[NMeNle][NMeNle]RCG-NH2; thioether N-14) |
| 0.385 to 6.74 | 0.158 to 4.71 | CCCC[C@H]1C(=O)N(C)[C@@H](CCCC)C(=O)N[C@@H](CCCNC(=N)N)C(=O)N[C@H](C(=O)NCC(N)=O)CSCC(=O)N[C@@H](Cc2ccc(O)cc2)C(=O)N(C)[C@@H](C)C(=O)N[C@@H](CC(N)=O)C(=O)N2CCC[C@H]2C(=O)N[C@@H](Cc2cnc[nH]2)C(=O)N[C@@H](CCC(=O)O)C(=O)N2CCC[C@H]2C(=O)N[C@@H](Cc2c[nH]c3ccccc23)C(=O)N[C@@H](CO)C(=O)N[C@@H](Cc2csc3ccccc23)C(=O)N1C [Example 1115] ({CH2CO}-Y[NMeA]NPHEPWS[Bta][NMeNle][NMeNle]RCG-NH2; thioether N-14) |
